Tests used:
[1] = Acute toxicity, oral, LD50 (Litchfield and Wilcoxon); conditions: mouse, in vivo, fasted male mice, confidence limits p=95% in brackets
Procedure: (1) The acute toxicity was determined on fasted male mice. The tested substances were orally administered and LD50 values (lethal dose for 50% of animals) were calculated according to the method of Litchfield and Wilcoxon (J. Pharmacol. exp. Ther. 96, 94-113, 1949). These LD50 values are given in mg/kg and also, when possible, with their confidence limits for p=95%.

[2] = test system: unanaesthetized, hypertension-suffering rat; experiment: Antihypertensive activity (systolic arterial pressure), oral; assay type: in vivo; conditions: 60 mg/kg, hypertensive rat, 3 hours
How it was run: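 Conscious hypertensive rats given compound orally at 60 mg/kg; systolic arterial pressure measured every 30 min for 2 h pre-dose and 3 h post-dose. Scored O (no fall), + (<10 mm Hg), ++ (10–20 mm Hg), +++ (>20 mm Hg).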

femoral artery = experiment: Vasodilator activity, femoral artery (technique of perfused paw); assay type: in vivo; set-up: key: O: no action; +: slight activity; ++: effect equal to half the effect of papaverine; +++: effect equal to that of papaverine; ++++: effect higher than that of papaverine; conditions: intra-arterial, 30 mg/kg, anaesthetized dog, vs papaverine at same dose
Procedure: (3) The vasodilator activity was measured at the level of femoral artery on anaesthetized dog (technique of perfused paw). The tested substances were given intra-arterially at the rate of 30 mg/kg. Results are expressed with respect to papaverine tested at the same dose.
++: effect equal to half the effect of papaverine.
+++: effect equal to that of papaverine.
++++: effect higher than that of papaverine.

[3] = test system: guinea-pig ileum (histamine contractions); experiment: Antispasmodic activity in vitro, contractions caused by histamine; conditions: added 15 minutes before spasm-producing agent
Procedure: (§1) (4) The antispasmodic activity was measured in vitro, on guinea-pig ileum, the contractions of which were caused by histammne (Hist.), acetylcholine (Achol) or barium chloride (BaCl2). The tested products were added to perfusion bath 15 minutes before the spasm-producing agents.
(§2) The dose is given in micograms (μg) per ml of bath causing complete spasm inhibition.

[4] = test system: guinea-pig ileum (acetylcholine contractions); experiment: Antispasmodic activity in vitro, contractions caused by acetylcholine; conditions: added 15 minutes before spasm-producing agent
Procedure: as §1, §2

[5] = test system: guinea-pig ileum (barium chloride contractions); experiment: Antispasmodic activity in vitro, contractions caused by barium chloride; conditions: added 15 minutes before spasm-producing agent
Procedure: as §1, §2

Row | Compound | LD50 [1] | ANTIHYPERTENSIVE ACTIVITY [2] | VASODILATOR ACTIVITY (femoral artery) | ANTISPASMODIC ACTIVITY HIST. (dose causing complete spasm inhibition) [3] | ANTISPASMODIC ACTIVITY ACHOL (dose causing complete spasm inhibition) [4] | ANTISPASMODIC ACTIVITY BaCl2 (dose causing complete spasm inhibition) [5]
1 | CC(NCCC(c1ccccc1)c1ccccc1)C(O)c1ccc2c(c1)CCCS2 (stereo not shown) [No 16] | > 4000 mg/kg | ++ (reduction of 10 to 20 mm Hg) | +++ | 0.3 μg per ml | 0.8 μg per ml | 0.33 μg per ml
2 | CC(NC1CCCCCCC1)C(O)c1ccc2c(c1)CCS2 (stereo not shown) [No 28] | 580 mg/kg |  | + | 0.8 μg per ml | 1.7 μg per ml | 1.7 μg per ml
3 | COc1ccc(CCNC(C)C(O)c2ccc3c(c2)CCCS3)cc1OC (stereo not shown) [No 22] | 3700 mg/kg |  |  | 3.3 μg per ml | 8.3 μg per ml | 8.3 μg per ml
4 | CCCCCCCCNC(C)C(O)c1ccc2c(c1)CCS2 (stereo not shown) [No 3, 1-(2,3-dihydro-5-benzo[b]thienyl)-2-n-octylamino-1-propanol] | 4450 mg/kg | +++ (reduction higher than 20 mm Hg) | +++ | 8.3 μg per ml | 16.7 μg per ml | 8.3 μg per ml
5 | CC(NCCCCc1ccc(Cl)cc1)C(O)c1ccc2c(c1)CCCS2 (stereo not shown) [No 23] | ~2100 mg/kg | +++ (reduction higher than 20 mm Hg) | ++++ | 0.8 μg per ml | 1.7 μg per ml | 0.8 μg per ml
6 | CC(NCCc1ccccc1)C(O)c1ccc2c(c1)CCCS2 (stereo not shown) [No 13] |  |  | ++ | 3.3 μg per ml | 0.8 μg per ml | 3.3 μg per ml
7 | CC(C(O)c1ccc2c(c1)CCCS2)N1CCC(Cc2ccccc2)CC1 (stereo not shown) [No 26] |  | +++ (reduction higher than 20 mm Hg) |  | 0.017 μg per ml | 1.7 μg per ml | 0.8 μg per ml
8 | CC(NCC(c1ccccc1)c1ccccc1)C(O)c1ccc2c(c1)CCCS2 (stereo not shown) [No 21] |  |  | +++ | 0.33 μg per ml | 0.33 μg per ml | 1.7 μg per ml
9 | CC(NCCc1ccccc1)C(O)c1ccc2c(c1)CCCCS2 (stereo not shown) [No 14] |  |  | +++ | 1.7 μg per ml | 3.3 μg per ml | 1.7 μg per ml
10 | CC(NCCCCc1ccccc1)C(O)c1ccc2c(c1)CCCS2 (stereo not shown) [No 2] | > 4000 mg/kg | +++ (reduction higher than 20 mm Hg) | ++++ | 1.7 μg per ml | 8.3 μg per ml | 16.7 μg per ml
11 | CCCCCCCCNC(C)C(O)c1ccc2c(c1)CCCS2 (stereo not shown) [No 1, 1-(6-Thiochromanyl)-2-n-octylamino-1-propanol] | > 4000 mg/kg | ++ (reduction of 10 to 20 mm Hg) | ++++ | 3.3 μg per ml | 3.3 μg per ml | 1.7 μg per ml
12 | CC(NCCCCSc1ccccc1)C(O)c1ccc2c(c1)CCCS2 (stereo not shown) [No 25] | > 4000 mg/kg |  |  | 0.8 μg per ml | 0.8 μg per ml | 0.8 μg per ml
13 | Cc1ccccc1N1CCN(C(C)C(O)c2ccc3c(c2)CCC(C)S3)CC1 (stereo not shown) [No 10] | > 4000 mg/kg | +++ (reduction higher than 20 mm Hg) | ++ | 0.33 μg per ml | 16.7 μg per ml | 8.3 μg per ml
14 | Cc1ccccc1N1CCN(C(C)C(O)c2ccc3c(c2)CCCS3)CC1 (stereo not shown) [No 15] |  | +++ (reduction higher than 20 mm Hg) | +++ | 0.8 μg per ml | 3.3 μg per ml | > 16.7 μg per ml
15 | CCCCCCCCNC(C)C(O)c1ccc2c(c1)CCCCS2 (stereo not shown) [No 11] | 3300 mg/kg |  | +++ | 0.8 μg per ml | 1.7 μg per ml | 3.3 μg per ml
16 | CCCCCCCCNC(C)C(O)c1ccc2c(c1)CCC(C)S2 (stereo not shown) [No 4] | 4000 mg/kg |  | +++ |  |  | > 16.7 μg per ml
17 | CC(NCCCCCc1ccccc1)C(O)c1ccc2c(c1)CCCS2 (stereo not shown) [No 8] |  |  | ++++ | 0.8 μg per ml | 1.7 μg per ml | 0.8 μg per ml
18 | CC(NC1CCCCCCC1)C(O)c1ccc2c(c1)CCCS2 (stereo not shown) [No 27] |  |  | ++ | 1.7 μg per ml | 1.7 μg per ml | 1.7 μg per ml
19 | CC(NCCCCOc1ccccc1)C(O)c1ccc2c(c1)CCCS2 (stereo not shown) [No 24] | > 4000 mg/kg |  | +++ | 0.33 μg per ml | 1.7 μg per ml | 1.7 μg per ml
20 | CC1CCc2cc(C(O)C(C)NCCc3ccccc3)ccc2S1 (stereo not shown) [No 9] | ~2750 mg/kg |  | +++ | 3.3 μg per ml | 3.3 μg per ml | 0.8 μg per ml
21 | CC1Cc2cc(C(O)C(C)NCCCCc3ccccc3)ccc2S1 (stereo not shown) [No 19] | 1550 mg/kg | +++ (reduction higher than 20 mm Hg) | +++ | 0.8 μg per ml | 1.7 μg per ml | 0.8 μg per ml
22 | CC(C(O)c1ccc2c(c1)CCC2)N1CCC(Cc2ccccc2)CC1 (stereo not shown) [No 172] | 1900 mg/kg | +++ (reduction higher than 20 mm Hg) | ++++ | 0.08 μg per ml | 1.7 μg per ml | 
23 | CC(NCCCCc1ccccc1)C(O)c1ccc2c(c1)CCO2 (stereo not shown) [No 35] | 430 mg/kg | +++ (reduction higher than 20 mm Hg) | ++ | 0.8 μg per ml | 1.7 μg per ml | 
24 | Cc1ccc(OCCNC(C)C(O)c2ccc3c(c2)CCCS3)cc1 (stereo not shown) [No 54] | > 4000 mg/kg | ++ (reduction of 10 to 20 mm Hg) | +++ | 3.3 μg per ml | 3.3 μg per ml | 
25 | 1-(5-indanyl)-2-(4-phenylbutylamino)-1-propanol [No 163] |  | +++ (reduction higher than 20 mm Hg) | ++++ | 0.33 μg per ml | 0.8 μg per ml | 0.8 μg per ml
26 | Cc1ccc(CCCCNC(C)C(O)c2ccc3c(c2)CCCS3)cc1 (stereo not shown) [No 34] | ~4000 mg/kg | +++ (reduction higher than 20 mm Hg) | +++ | 0.8 μg per ml | 0.8 μg per ml | 
